Patent US20100113596A1, “Method for inhibiting liver fibrosis via retinoic acid derivative” (priority 2008, published 2010)

Key:
collagen (Col 1A2) = test: Col 1A2 expression, immunostaining of HSC-T6 cells treated with TGF-β and PL; assay type: cell-based; conditions: HSC-T6 cells treated with TGF-β and 30, 150 or 300 nM PL for 4 hours
Description: It has been shown that TGF-β plays a major role in fibrogenesis via the activation of HSC. After the HSC-T6 cells were treated with TGF-β and PL for 4 hours, the cells were subjected to immunostaining and observed under a fluorescence microscopy, as shown in FIG. 4.

Sp1 = Sp1 binding activity (EMSA) in liver of pPK9a-transferred mice fed with ZnSO4 water; assay type: in vivo, mouse; conditions: TGF-β1-induced increase
Description: (§1) The eight-week-old BALB/c mice were fed ad libitum standard laboratory chow and water with or without 25 mM ZnSO4 plus 5% sucrose. PL was given intraperitoneally (i.p.) at 30, 150 or 300 μg/kg. The animals were hydrodynamically injected with pPK9a plasmid containing TGF-β1 gene through tail vein and simultaneously fed with ZnSO4(25 mM) and PL as reported. After 48 h, the mice were sacrificed for liver sections.
(§2) […] of plasmid (pPK9a) was dissolved in 3.0 ml Ringer's solution and injected in bolus into the tail vein in a short duration of 5˜7 seconds according to the hydrodynamics-based transfection protocol as described. ZnSO4(25 mM) was dissolved in the drinking water to activate the metallothionein promoter and stimulate TGF-β1 expression.
Since Sp1 is a critical mediator of Col 1A2 expression, we examined the effects of PL on Sp1 binding activity in pPK9a-transferred mice fed with ZnSO4 water.

α-SMA [1] = test: α-SMA expression in liver tissue of TGF-β1 transferred fibrotic mice; assay type: in vivo; conditions: PL i.p. 30, 150 or 300 μg/kg, compared with the positive controls
Description: as §1, §2
Mouse liver tissues were embedded in an optimal cutting temperature compound (Miles Inc.) and frozen in liquid nitrogen. […]

[2] = tested on: [Ca2+]i in TGF-β treated HSC-T6 cells; test: Measurement of cytosolic Ca2+ ([Ca2+]i) with fura-2; assay type: cell-based; conditions: HSC-T6 cells treated with PL, then TGF-β1 added; compared with positive control
Description: Trypsinized cells (10^6/ml) were recovered 4 h after culture with PL and loaded with 2 μM fura-2/acetoxy methyl (fura-2/AM) for 30 min at 25° C. before stimulating with TGF-β (2ng/ml). Cells were gently shaken for several seconds every 10 min to prevent re-attachment. Cells were washed and resuspended in Ca^2+-containing medium. Fura-2 fluorescence measurements were performed in a water-jacketed cuvette with continuous stirring at 25° C. Fluorescence was monitored with a Hitachi F-2500 fluorescence spectrophotometer by recording excitation signals at), and 380 nm and emission signals at 510 nm at 1-s intervals.
Therefore, we examined whether PL could change the concentration of [Ca^2+]i in TGF-β treated cells. Activation of HSC, the main source of liver collagen, involves the induction of α-SMA, conversing from quiescent to proliferation, and secretion of collagen. After treatment with PL, TGF-β1 was added to HSC-T6 cells and the [Ca^2+]i was measured immediately (FIG. 2). PL decreased the protein levels of α-SMA, which was detected by both flow cytometry and Western blot (FIG. 3). The results imply that a trace amount of PL is sufficient enough to block-[Ca^2+]i and down-regulate α-SMA expression.

[3] = tested on: TGF-β-induced ROS in HSC-T6 cells; test: ROS assay on TGF-β1 and PL-treated HSC-T6 cells (DCFH-DA, flow cytometry); assay type: cell-based; conditions: pretreatment with 30˜300 nM PL, TGF-β1 2 ng/ml
Description: (§3) Cells were incubated with 2 ng/ml of TGF-β and PL for 5 hours and analyzed for the oxidation state using 7-dichlorodihydrofluorescein diacetate (DCFH-DA) as a fluorogenic probe and flow cytometer (FACSCalibur). The cells were recovered with 0.01% trypsin and the cellular fluorescence intensity was measured after 30 min incubation of 5 μM DCFHDA. For each analysis, 10,000 events were recorded. Cells were collected in 0.01% trypsin, fixed with 3.7% formaldehyde, permeabilized with 0.02% Triton X-100 in PBS, and stained for a-SMA as described previously. For detecting a-SMA using flow cytometry, cells were treated with 2 ng/ml of TGF-β and PL for 12 hours and immunostained with α-SMA-specific antibody (Santa Cruz) and FITC-conjugated secondary antibody (Molecular Probe). Then the cells were recovered and subjected to flow cytometer, and PL can effectively eliminate radicals as ROS decreased with increasing dosages of PL, as referred to FIG. 1.
ROS intermediates act as signaling molecules of TGF-β in regulation of inflammatory and fibrotic responses. Therefore, first select marker was to determine whether PL could be an antioxidant to block TGF-β-induced ROS in HSC-T6 cells. The intracellular oxidation state of the cell was analyzed by flow cytometry, when ROS were induced by TGF-β1 (2 ng/ml). […]

α-SMA [4] = test: α-SMA expression in HSC-T6 cells (flow cytometry and Western blot); assay type: cell-based; conditions: TGF-β and PL, compared with positive control
Description: as §3
Liver tissues were homogenized in RIPA buffer and centrifuged as described; supernatant was taken as a whole-cell lysate. […]
Therefore, we examined whether PL could change the concentration of [Ca^2+]i in TGF-β treated cells. […] After treatment with PL, TGF-β1 was added to HSC-T6 cells and the [Ca^2+]i was measured immediately (FIG. 2). PL decreased the protein levels of α-SMA, which was detected by both flow cytometry and Western blot (FIG. 3). […]

p-Smad2/3 = test: TGF-β-induced p-Smad2/3 and Smad4 translocation into nucleus (Western blot, immunocytostaining); assay type: cell-based
Text: Translocation of phosphorylated Smad complexes into nucleus is one of the key steps in signal transduction of the liver fibrosis. In activated HSC there is an elevated accumulation of p-Smad2/3 and Smad4 in nucleus. To understand how PL regulates Smad signaling pathway, we first determined the amount of Smad complexes using Western blot.

expression of Col 1A2 (collagen (Col 1A2)): 0.001%
SMILES: CC1=C(/C=C/C(C)=C/C=C/C(C)=C/C(=O)O)C(C)(C)CCC1 [PL]
Sp1 binding activity (Sp1): the increase was reversed by PL treatment
α-SMA expression in liver tissue (α-SMA [1]): markedly inhibited
intracellular calcium [Ca2+]i [2]: significantly reduced
ROS generated by TGF-β1 [3]: sufficiently eliminate the ROS generated by TGF-β1 in a dose-dependent manner
α-SMA expression (α-SMA [4]): significantly reduced
amount of p-Smad2/3 in the cell nucleus (p-Smad2/3; Western blot): decreased the amount of p-Smad2/3 in the cell nucleus in a dose-dependent manner
transport of p-Smad2/3 into cell nucleus (p-Smad2/3; immunocytostaining): decreased the transport of p-Smad2/3 into cell nucleus also in a dose-dependent manner
